Data published in US20190125745A1, “TREATMENT AND DIAGNOSIS OF CANCER” (Rgenix, Inc., priority 2014, published 2019).
Structures can show the parent of a compound that is named as a salt.

Legend:
ApoE expression = ApoE expression by qRT-PCR in human melanoma cells
Experimental: (A-B) Parental MeWo cells were incubated in the presence of DMSO or GW3965 at the indicated concentrations. After 48 hours, total RNA was extracted, and the levels of ApoE (A) and DNAJA4 (B) were determined by qRT-PCR. n=3. (C) Cell invasion by 1×10^5 parental MeWo cells pre-treated with GW3965 or DMSO for 48 hours. n=6-7. p-values based on a one-sided student's t-test. […] (D) Endothelial recruitment by 5×10^4 parental MeWo cells pre-treated with GW3965 or DMSO for 48 hours. n=6-7. p-values based on a one-sided student's t-test. (E) Mice were fed with grain-based chow diet containing GW3965 (20 mg/kg) or a control diet. After 10 days, 4×10^4 parental MeWo cells were tail-vein injected into mice, and the mice were continuously fed with GW3965-containing chow or a control diet throughout the experiment.
(A-C) MeWo (A), HT-144 (B), and WM-266-4 (C) human melanoma cells were treated with GW3965 or T0901317 at the indicated concentrations for 48 hours, and the expression levels of ApoE were analysed by qRT-PCR. n=3. (D) Extracellular ApoE protein levels, quantified by ELISA, in serum-free conditioned media collected from HT-144 human melanoma cells treated with DMSO, GW3965, or T0901317 at 1 μM for 72 hours. n=3-4. […] (I-J) Relative ApoE expression, quantified by qRT-PCR, in MeWo (I) and HT-144 (J) cells transduced with a control shRNA or shRNAs targeting LXRα or LXRβ and subsequently treated with DMSO, GW3965, or T0901317 at 1 μM for 48 hours. n=3-9. (K) Extracellular ApoE protein levels, measured by ELISA, in serum-free conditioned media harvested from HT-144 cells transduced with a control shRNA or an shRNA targeting LXRα or LXRβ and treated with DMSO or GW3965 at 1 μM for 72 hours. n=3.
RNA was extracted from whole cell lysates using the Total RNA Purification Kit (17200, Norgen, Thorold, Canada). 600 ng of total RNA was then reverse transcribed into cDNA using the cDNA First-Strand Synthesis Kit (18080-051, Invitrogen), and quantitative real-time PCR amplification was performed as previously described (Pencheva et al., 2012) using an ABI Prism 7900HT Real-Time PCR System (Applied Biosystems, Austin, Tex.). […]
For every sample, 600 ng of RNA was reverse transcribed into cDNA using the cDNA First-Strand Synthesis kit (Invitrogen). […] Each reaction was carried out in quadruplicates, and ApoE mRNA expression levels were measured by quantitative real-time PCR amplification using an ABI Prism 7900HT Real-Time PCR System (Applied Biosystems). The relative ApoE expression was determined using the ΔΔCt method.

[1] = test system: MeWo, HT-144, SK-Mel-2, SK-Mel-334.2 human melanoma cells; test: Cell invasion assay (trans-well matrigel); type: cell-based; conditions: MeWo, 1 μM, 72 hours
Excerpt: FIG. 2. Activation of LXRβ Signaling Suppresses Melanoma Cell Invasion and Endothelial Recruitment. (A) Heat-map depicting microarray-based expression levels of LXR and RXR isoforms in the NCI-60 melanoma cell line collection. The heat map for these genes is extracted from the larger nuclear hormone receptor family heat map (FIG. 3). Color-map key indicates the change in standard deviations for the expression value of each receptor relative to the average expression value of all microarray-profiled genes (>39,000 transcript variants) in each cell line. (B) Cell invasion by 1×10^5 MeWo, 5×10^4 HT-144, 5×10^5 SK-Mel-2, and 5×10^4 SK-Mel-334.2 human melanoma cells. Cells were treated with DMSO, GW3965, T0901317, or Bexarotene at 1 μM for 72 hours and subjected to a trans-well matrigel invasion assay. n=4-8. (C) 5×10^4 MeWo, HT-144, SK-Mel-2, and SK-Mel-334.2 human melanoma cells were tested for their ability to recruit 1×10^5 endothelial cells in a trans-well migration assay, following treatment of the melanoma cells with DMSO, GW3965, T0901317, or Bexarotene at 1 μM for 72 hours. n=4-8. […] Scale bar, 50 μm. *p<0.05, **p<0.01, ***p<0.001, ****p<0.0001.
The cell invasion assay was performed as previously described in detail (Pencheva et al., 2012) using a trans-well matrigel invasion chamber system (354480, BD Biosciences). In brief, various melanoma cells were cultured in the presence of DMSO, GW3965, T0901317, or Bexarotene at 1 μM for 56 hours, after which melanoma cells were switched to starvation media (0.2% FBS) for 16 hours in the presence of each drug. Following starvation, cells were seeded into matrigel-coated trans-well inserts, and the invasion assay was allowed to proceed for 24 hours at […]. For ApoE antibody neutralization experiments, 40 μg/mL 1 D7 anti-ApoE blocking antibody (Heart Institute, University of Ottawa, Ottawa, Canada) or […] anti-IgG control antibody (AB-108-C, R&D Systems, Minneapolis, Minn.) was added to each trans-well insert at the start of the assay.
The cells were then serum starved for 16 hours in 0.2% FBS media in the presence of each corresponding drug or DMSO. Following serum starvation, the cells were subjected to the trans-well invasion assay using a matrigel invasion chamber system (354480, BD Biosciences). Invasion chambers were pre-equilibrated prior to the assay by adding 0.5 mL of starvation media to the top and bottom wells. Meanwhile, cancer cells were trypsinized and viable cells were counted using trypan blue. Cancer cells were then resuspended at a concentration of 2×10^5 cells/1 mL starvation media, and 0.5 mL of cell suspension, containing 1×10^5 cells, was seeded into each trans-well. The invasion assay was allowed to proceed for 24 hours at 37° C. […] Following fixation, the inserts were washed in PBS, cut out, and mounted onto slides using VectaShield mounting medium containing DAPI nuclear stain (H-1000, Vector Laboratories). The basal side of each insert was imaged using an inverted fluorescence microscope (Zeiss Axiovert 40 CFL) at 5× magnification, and the number of DAPI-positive cells was quantified using ImageJ.

[2] = test system: DTIC-resistant MeWo human melanoma cells; conditions: oral, diet 100 mg/kg
Experimental: Tumor growth was measured twice a week.

[3] = test system: amyloid plaque pathology and memory deficits; conditions: oral delivery; cited from earlier work

Compound: O=C(O)Cc1cccc(OCCCN(Cc2cccc(C(F)(F)F)c2Cl)CC(c2ccccc2)c2ccccc2)c1 [GW3965 108, 3-[3-[N-(2-Chloro-3-trifluoromethylbenzyl)-(2,2-diphenylethyl)amino]propyloxy] phenylacetic acid hydrochloride]
- potency of inducing ApoE expression in vitro (ApoE expression): potently induce
- suppression of cell invasion and endothelial recruitment upon knockdown of ApoE in melanoma cells [1]: blocked
- ability to suppress invasion and endothelial recruitment upon knockdown of melanoma LXRβ, but not LXRα ([1]; HT-144): abrogated
- growth of in vivo-derived DTIC-resistant human melanoma tumors (MeWo) [2]: strongly inhibited
- amyloid plaque pathology and memory deficits [3]: improve amyloid plaque pathology and memory deficits
